In patent publication US9849130B2 (KamTek, Inc., priority 2014, dated 2017):
Converted amounts (≈) assume the structure as drawn.

Tests used:
Bifidobacterium strains = test: MIC by microdilution in BHI broth against Bifidobacterium strains; format: cell-based, Bifidobacterium spp.; details: BHI broth
[1] = system: Lachnospiraceae and related bacterial strains; test: MIC against Lachnospiraceae and related bacterial strains; format: cell-based, Lachnospiraceae spp.; details: broth microdilution, brucella broth
C. perfringens MH310 = test: microbe, parasite or virus in culture; format: cell-based; details: C. perfringens MH310
Lactobacillus strains = test: MIC against Lactobacillus strains; format: cell-based, Lactobacillus spp.; details: broth microdilution, BHI with 0.02% Tween 80, pH 6.0
[2] = system: Clostridium difficile (CD) strains; test: microbe, parasite or virus in culture; format: cell-based
Enterococcus faecalis = test: MIC by microdilution in Mueller-Hinton broth against Enterococcus faecalis strains; format: cell-based
Escherichia coli strains = test: MIC by microdilution in Mueller-Hinton broth against Escherichia coli strains; format: cell-based; details: for MIC: Mueller-Hinton broth
[3] = system: Staphylococcus aureus strains; test: MIC by microdilution in Mueller-Hinton broth against Staphylococcus aureus strains; format: cell-based
Fusobacterium = test: MIC by microdilution in Brucella broth against Fusobacterium; format: cell-based, Fusobacterium spp.; details: Brucella broth

## CCN=c1cc2n(-c3ccc(Cl)cc3)c3ccccc3nc-2cc1Nc1ccc(Cl)cc1 [B746]
Bifidobacterium strains; Bifidobacterium adolescentis HM-633
  MIC: 2 µg/mL (≈ 4.35 µM)
Bifidobacterium strains; Bifidobacterium breve HM-411
  MIC: 4 µg/mL (≈ 8.71 µM)
Bifidobacterium strains; Bifidobacterium breve HM-412
  MIC: 4 µg/mL (≈ 8.71 µM)
Bifidobacterium strains; Bifidobacterium breve HM-856
  MIC: 32 µg/mL (≈ 69.7 µM)
Bifidobacterium strains; Bifidobacterium breve HM-1120
  MIC: >32 µg/mL
Bifidobacterium strains; Bifidobacterium longum HM-845
  MIC: 2 µg/mL (≈ 4.35 µM)
Bifidobacterium strains; Bifidobacterium longum HM-846
  MIC: 2 µg/mL (≈ 4.35 µM)
Bifidobacterium strains; Bifidobacterium longum HM-847
  MIC: 2 µg/mL (≈ 4.35 µM)
Bifidobacterium strains; Bifidobacterium sp. HM-30
  MIC: 1 µg/mL (≈ 2.18 µM)
Bifidobacterium strains; Bifidobacterium sp. HM-868
  MIC: 2 µg/mL (≈ 4.35 µM)
[1]; Clostridiales bacterium HM-84
  MIC: 0.062 µg/mL (≈ 0.135 µM)
[1]; Clostridiales bacterium HM-182
  MIC: 1 µg/mL (≈ 2.18 µM)
[1]; Eubacterium sp. HM-178
  MIC: 0.5 µg/mL (≈ 1.09 µM)
[1]; Lachnospiraceae sp. HM-7
  MIC: ≦0.031 μg/ml
[1]; Lachnospiraceae sp. HM-150
  MIC: 0.5 µg/mL (≈ 1.09 µM)
[1]; Lachnospiraceae sp. HM-153
  MIC: 0.5 µg/mL (≈ 1.09 µM)
[1]; Lachnospiraceae sp. HM-154
  MIC: 0.5 µg/mL (≈ 1.09 µM)
[1]; Lachnospiraceae sp. HM-157
  MIC: 0.5 µg/mL (≈ 1.09 µM)
[1]; Lachnospiraceae sp. HM-161
  MIC: 0.25 µg/mL (≈ 0.544 µM)
[1]; Lachnospiraceae sp. HM-480
  MIC: 0.125 µg/mL (≈ 0.272 µM)
[1]; Lachnospiraceae sp. HM-558
  MIC: 0.125 µg/mL (≈ 0.272 µM)
[1]; Lachnospiraceae sp. HM-768
  MIC: ≦0.031 μg/ml
[1]; Lachnospiraceae sp. HM-868
  MIC: 2 µg/mL (≈ 4.35 µM)
[1]; Peptostreptococcaceae sp. HM-766
  MIC: 1 µg/mL (≈ 2.18 µM)
C. perfringens MH310; BB
  MIC: 0.5 µg/mL (≈ 1.09 µM)
C. perfringens MH310; BHI
  MIC: 1 µg/mL (≈ 2.18 µM)
Lactobacillus strains; Lactobacillus crispatus HM-637
  MIC: 8 µg/mL (≈ 17.4 µM)
Lactobacillus strains; Lactobacillus gasseri HM-104
  MIC: 16 µg/mL (≈ 34.8 µM)
Lactobacillus strains; Lactobacillus iners HM-126
  MIC: 4 µg/mL (≈ 8.71 µM)
Lactobacillus strains; Lactobacillus jensenii HM-105
  MIC: >32 µg/mL
Lactobacillus strains; Lactobacillus jhonsonii HM-643
  MIC: 32 µg/mL (≈ 69.7 µM)
Lactobacillus strains; Lactobacillus reuteri HM-102
  MIC: 32 µg/mL (≈ 69.7 µM)
Lactobacillus strains; Lactobacillus rhamnosus HM-106
  MIC: >32 µg/mL
Lactobacillus strains; Lactobacillus sp. HM-228
  MIC: 4 µg/mL (≈ 8.71 µM)
Lactobacillus strains; Lactobacillus sp. HM-478
  MIC: 16 µg/mL (≈ 34.8 µM)
Lactobacillus strains; Lactobacillus vaginalis HM-405
  MIC: 4 µg/mL (≈ 8.71 µM)
[2]
  antibacterial activity against CD, fold greater than MET: 16 fold
  antibacterial activity against CD, fold greater than VAN: 8 fold
[2]; CD strain BAA1805 (hyper-virulent strain BI/NAP1/027), BB
  MIC: 0.25 µg/mL (≈ 0.544 µM)
[2]; n = 37
  MIC50: 0.125 µg/mL (≈ 0.272 µM)
  MIC90: 0.25 µg/mL (≈ 0.544 µM)
  MIC Range: ≦0.031-0.5 μg/ml
Enterococcus faecalis; E. faecalis NR 31884
  MIC: 4 µg/mL (≈ 8.71 µM)
Enterococcus faecalis; E. faecalis NR 31885
  MIC: 4 µg/mL (≈ 8.71 µM)
Enterococcus faecalis; E. faecalis NR 31886
  MIC: 8 µg/mL (≈ 17.4 µM)
Enterococcus faecalis; E. faecalis NR 31887
  MIC: 4 µg/mL (≈ 8.71 µM)
Enterococcus faecalis; E. faecalis NR 31888
  MIC: 8 µg/mL (≈ 17.4 µM)
Escherichia coli strains
  activity against E. coli (in words): relatively inactive
Escherichia coli strains; Escherichia coli strain NR 6
  MIC: >32 µg/mL
Escherichia coli strains; Escherichia coli strain NR 8
  MIC: >32 µg/mL
Escherichia coli strains; Escherichia coli strain NR 96
  MIC: >32 µg/mL
Escherichia coli strains; Escherichia coli strain NR 104
  MIC: >32 µg/mL
Escherichia coli strains; Escherichia coli strain NR 17626
  MIC: >32 µg/mL
Escherichia coli strains; Escherichia coli strain NR 17627
  MIC: >32 µg/mL
Escherichia coli strains; Escherichia coli strain NR 17633
  MIC: >32 µg/mL
Escherichia coli strains; Escherichia coli strain NR 17647
  MIC: >32 µg/mL
Escherichia coli strains; Escherichia coli strain NR 17650
  MIC: >32 µg/mL
Escherichia coli strains; Escherichia coli strain NR 17661
  MIC: >32 µg/mL
[3]; Staphylococcus aureus strain NR 10129
  MIC: 4 µg/mL (≈ 8.71 µM)
[3]; Staphylococcus aureus strain NR 10186
  MIC: 2 µg/mL (≈ 4.35 µM)
[3]; Staphylococcus aureus strain NR 10187
  MIC: 4 µg/mL (≈ 8.71 µM)
[3]; Staphylococcus aureus strain NR 10188
  MIC: 4 µg/mL (≈ 8.71 µM)
[3]; Staphylococcus aureus strain NR 10189
  MIC: 4 µg/mL (≈ 8.71 µM)
[3]; Staphylococcus aureus strain NR 10191
  MIC: 4 µg/mL (≈ 8.71 µM)
[3]; Staphylococcus aureus strain NR 10192
  MIC: 4 µg/mL (≈ 8.71 µM)
[3]; Staphylococcus aureus strain NR 10193
  MIC: 4 µg/mL (≈ 8.71 µM)
[3]; Staphylococcus aureus strain NR 10194
  MIC: 4 µg/mL (≈ 8.71 µM)
[3]; Staphylococcus aureus strain NR 10198
  MIC: 16 µg/mL (≈ 34.8 µM)
Fusobacterium; F. nucleatum HM-75
  MIC: 16 µg/mL (≈ 34.8 µM)
Fusobacterium; F. nucleatum HM-260
  MIC: >32 µg/mL
Fusobacterium; F. nucleatum HM-992
  MIC: 16 µg/mL (≈ 34.8 µM)
Fusobacterium; F. nucleatum HM-993
  MIC: 2 µg/mL (≈ 4.35 µM)
Fusobacterium; F. nucleatum HM-994
  MIC: 8 µg/mL (≈ 17.4 µM)
Fusobacterium; F. nucleatum HM-995
  MIC: 16 µg/mL (≈ 34.8 µM)
Fusobacterium; F. nucleatum HM-996
  MIC: 32 µg/mL (≈ 69.7 µM)
Fusobacterium; F. nucleatum HM-997
  MIC: 16 µg/mL (≈ 34.8 µM)
Fusobacterium; Fusobacterium sp. HM 42
  MIC: >32 µg/mL
Fusobacterium; Fusobacterium sp. HM 57
  MIC: >32 µg/mL
Fusobacterium; Fusobacterium sp. HM-556
  MIC: 8 µg/mL (≈ 17.4 µM)
Fusobacterium; Fusobacterium sp. HM-758
  MIC: >32 µg/mL
Fusobacterium; Fusobacterium sp. HM-871
  MIC: 8 µg/mL (≈ 17.4 µM)
Fusobacterium; Fusobacterium sp. HM-874
  MIC: 16 µg/mL (≈ 34.8 µM)
Fusobacterium; Fusobacterium sp. HM-875
  MIC: 8 µg/mL (≈ 17.4 µM)
